Test results as given in patent US9193731B2, “Antimicrobial compounds and methods of making and using the same” (Melinta Therapeutics, Inc., priority 2009, dated 2015).

The compounds below were run on Escherichia coli strain ATCC25922 (assay: standard microdilution assay to determine minimum inhibitory concentrations (MICs)). Details: Escherichia coli strain ATCC25922, microdilution.
Assay type: cell-based
Outline: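 E. coli strain ATCC25922 tested per CLSI microdilution methodology (about 100 microliters per well) to find minimum inhibitory concentrations. Activity scored categorically at a 16 micrograms/ml threshold.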

| SMILES | E. coli ATCC25922 MIC |
| --- | --- |
| N=C(N)NCCCNCc1ccc(-n2cc3cc(C4CCCN(C(=O)CCCN)C4)[nH]c3nc2=O)cc1 (stereo not shown) [Compound 1406] | + (a “+” indicates that the compound has an MIC value of 16 micrograms/ml or less) |
| N=C(N)NCCCNCc1ccc(-n2cc3cc(-c4ccc(S(=O)(=O)N(CC5COCCO5)C5CCCNC5)cc4)[nH]c3nc2=O)cc1 (stereo not shown) [Compound 851] | + (a “+” indicates that the compound has an MIC value of 16 micrograms/ml or less) |
| N=C(N)NCCCNCc1ccc(-n2cc3cc(-c4ccc(C(NC5CN(C(=N)N)C5)C(F)F)cc4)[nH]c3nc2=O)cc1 (stereo not shown) [Compound 2006a] | + (a “+” indicates that the compound has an MIC value of 16 micrograms/ml or less) |
| N=C(N)NCCCNCc1ccc(-n2cc3cc(-c4ccc(S(=O)(=O)N5CC(N)C5)cc4)[nH]c3nc2=O)cc1 [Compound 1459] | + (a “+” indicates that the compound has an MIC value of 16 micrograms/ml or less) |
| NC(N)=NCCCNCc1ccc(-n2cc3cc(-c4cccc(S(=O)(=O)N(CCn5cccc5)C5CCNCC5)c4)[nH]c3nc2=O)cc1 [Compound 1227] | + (a “+” indicates that the compound has an MIC value of 16 micrograms/ml or less) |
| N=C(N)NCCCNCc1ccc(-n2cc3cc(-c4cccc(OCC5CNCCO5)c4)[nH]c3nc2=O)cc1 (stereo not shown) [Compound 1452] | + (a “+” indicates that the compound has an MIC value of 16 micrograms/ml or less) |
| CNCc1ccc(-n2cc3cc(-c4ccc(S(=O)(=O)N(CCCN5CCc6ccccc65)C5CCNCC5)cc4)[nH]c3nc2=O)cc1 [Compound 1063] | − (a “−” indicates that the compound has an MIC value greater than 16 micrograms/ml) |
| N=C(N)NCCCNCc1ccc(-n2cc3cc(-c4cc(CNCC(F)(F)F)cc(N5CCNCC5)c4)[nH]c3nc2=O)cc1 [Compound 1040] | + (a “+” indicates that the compound has an MIC value of 16 micrograms/ml or less) |
| N=C(N)NCCC(=O)NCc1ccc(-n2cc3cc(-c4ccc(S(=O)(=O)NC5CCNCC5)cc4)[nH]c3nc2=O)cc1 [Compound 1075] | + (a “+” indicates that the compound has an MIC value of 16 micrograms/ml or less) |
| N=C(N)NCCCNCc1ccc(-n2cc3cc(CCNC4CNC4)[nH]c3nc2=O)cc1 [Compound 1398] | + (a “+” indicates that the compound has an MIC value of 16 micrograms/ml or less) |
| N=C(N)NCCCNCc1ccc(-n2cc3cc(-c4cc(CN5Cc6ccccc6C5)cc(N5CCNCC5)c4)[nH]c3nc2=O)cc1 [Compound 1050] | + (a “+” indicates that the compound has an MIC value of 16 micrograms/ml or less) |
| N=C(N)NCCCNCc1ccc(-n2cc3cc(-c4cc(CN)cc(OCC(F)CN)c4)[nH]c3nc2=O)cc1 (stereo not shown) [Compound 2051a] | + (a “+” indicates that the compound has an MIC value of 16 micrograms/ml or less) |
| N=C(N)NCCCNCC(O)Cn1cc2cc(-c3ccc(S(=O)(=O)NC4CCNCC4)cc3)[nH]c2nc1=O (stereo not shown) [Compound 977] | + (a “+” indicates that the compound has an MIC value of 16 micrograms/ml or less) |
| N=C(N)NCCCNCc1ccc(-n2cc3cc(C4CN(CCCCN)CCO4)[nH]c3nc2=O)cc1 (stereo not shown) [Compound 1381] | + (a “+” indicates that the compound has an MIC value of 16 micrograms/ml or less) |
| N=C(N)NCCCNCc1ccc(-n2cc3cc(-c4cc(C(=O)NC5CCNCC5)cc(N5CCNCC5)c4)[nH]c3nc2=O)cc1 [Compound 1023] | + (a “+” indicates that the compound has an MIC value of 16 micrograms/ml or less) |
| CN(C)Cc1ccc(-n2cc3cc(-c4ccc(S(=O)(=O)N(CCCC5CCCC5)C5CCNCC5)cc4)[nH]c3nc2=O)cc1 [Compound 1000] | − (a “−” indicates that the compound has an MIC value greater than 16 micrograms/ml) |
| N=C(N)NCCCNCc1ccc(-n2cc3cc(-c4ccc(S(=O)(=O)NC5CCN(CCF)CC5)cc4)[nH]c3nc2=O)cc1 [Compound 943] | + (a “+” indicates that the compound has an MIC value of 16 micrograms/ml or less) |
| N=C(N)NCCCNCc1ccc(-n2cc3cc(-c4cc(C(=O)N5CCN(CCO)CC5)cc(N5CCNCC5)c4)[nH]c3nc2=O)cc1 [Compound 861] | − (a “−” indicates that the compound has an MIC value greater than 16 micrograms/ml) |
| CN(C)Cc1ccc(-n2cc3cc(-c4ccc(S(=O)(=O)N(CCCN5CCCCC5)C5CCNCC5)cc4)[nH]c3nc2=O)cc1 [Compound 987] | − (a “−” indicates that the compound has an MIC value greater than 16 micrograms/ml) |
| N=C(N)NCCCNCc1ccc(-n2cc3cc(-c4cc(C(=O)Nc5cccc(C(F)(F)F)c5)cc(N5CCNCC5)c4)[nH]c3nc2=O)cc1 [Compound 1069] | + (a “+” indicates that the compound has an MIC value of 16 micrograms/ml or less) |
| N=C(N)NCCCNCc1ccc(-n2cc3cc(-c4cc(C(=O)NCCc5ccc(F)cc5)cc(N5CCNCC5)c4)[nH]c3nc2=O)cc1 [Compound 963] | + (a “+” indicates that the compound has an MIC value of 16 micrograms/ml or less) |
| N=C(N)NCCCNCc1ccc(-n2cc3cc(-c4ccc(S(=O)(=O)N(CCCc5cnc6ncnn6c5)C5CCNCC5)cc4)[nH]c3nc2=O)cc1 [Compound 862] | + (a “+” indicates that the compound has an MIC value of 16 micrograms/ml or less) |
| N=C(N)NCCNCC(O)Cn1cc2cc(-c3ccc(S(=O)(=O)NC4CCNCC4)cc3)[nH]c2nc1=O (stereo not shown) [Compound 1108] | + (a “+” indicates that the compound has an MIC value of 16 micrograms/ml or less) |
| N=C(N)NCCCNCc1ccc(-n2cc3cc(-c4ccc(S(=O)(=O)N(CCCN5CCS(=O)(=O)CC5)C5CCNCC5)cc4)[nH]c3nc2=O)cc1 [Compound 855] | + (a “+” indicates that the compound has an MIC value of 16 micrograms/ml or less) |
| N=C(N)NCCCNCc1ccc(-n2cc3cc(-c4ccc(C(NC5CNC5)C(F)(F)F)cc4)[nH]c3nc2=O)cc1 (stereo not shown) [Compound 1431] | + (a “+” indicates that the compound has an MIC value of 16 micrograms/ml or less) |
| N=C(N)NCCCNCc1ccc(-n2cc3cc(-c4cc(OCC(F)CN)cc(N5CCOCC5)c4)[nH]c3nc2=O)cc1 (stereo not shown) [Compound 2013a] | + (a “+” indicates that the compound has an MIC value of 16 micrograms/ml or less) |
| N=C(N)NCCCNCc1ccc(-n2cc3cc(-c4cccc(OCC5CNC5)c4)[nH]c3nc2=O)cc1 [Compound 1418] | + (a “+” indicates that the compound has an MIC value of 16 micrograms/ml or less) |
| N=C(N)NCCCNCc1ccc(-n2cc3cc(-c4ccc(S(=O)(=O)CCCNC5CCCNC5)cc4)[nH]c3nc2=O)cc1 (stereo not shown) [Compound 1293] | + (a “+” indicates that the compound has an MIC value of 16 micrograms/ml or less) |

Same assay, conditions: Escherichia coli, ATCC25922, Escherichia coli strain ATCC25922, microdilution; read-out: E. coli ATCC25922 MIC

| SMILES | MIC |
| --- | --- |
| COc1ccc(CCN(C2CCNCC2)S(=O)(=O)c2cccc(-c3cc4cn(-c5ccc(CN)cc5)c(=O)nc4[nH]3)c2)cc1 [Compound 1215] | > 16 µg/mL |
| N=C(N)NCCCNCc1ccc(-n2cc3cc(COc4ccccc4)[nH]c3nc2=O)cc1 [Compound 630] | > 16 µg/mL |
| NCc1ccc(-n2cc3cc(-c4cccc(CCN5CCNCC5)c4)[nH]c3nc2=O)cc1 [Compound 1200] | > 16 µg/mL |
| O=c1nc2[nH]c(-c3ccc(S(=O)(=O)NC4CCNCC4)cc3)cc2cn1-c1cccc(OC2CCNC2)c1 (stereo not shown) [Compound 1148] | > 16 µg/mL |
| NCCCCCN1CC=C(n2cc3cc(-c4ccc(C(=O)NC5CCNCC5)cc4)[nH]c3nc2=O)CC1 [Compound 507] | < 16 µg/mL |
| NCc1ccc(-n2cc3cc(-c4ccc(S(=O)(=O)N(CCCC5CCCC5)C5CCNCC5)cc4)[nH]c3nc2=O)cc1 [Compound 946] | > 16 µg/mL |
| NCc1ccc(-n2cc3cc(-c4cccc(OCC(F)(F)CN)c4)[nH]c3nc2=O)cc1 [Compound 1436] | > 16 µg/mL |
| N=C(N)NCCCNCc1ccc(-n2cc3cc(C4CCN(C(=N)N)C4)[nH]c3nc2=O)cc1 (stereo not shown) [Compound 1230] | < 16 µg/mL |
| CN(C)C1CCN(c2cccc(-c3cc4cn(-c5ccc(CNCCCN)cc5)c(=O)nc4[nH]3)c2)CC1 [Compound 665] | < 16 µg/mL |
| NCc1ccc(-n2cc3cc(-c4cccc(S(=O)(=O)N(CCn5cccn5)C5CCNCC5)c4)[nH]c3nc2=O)cc1 [Compound 1174] | > 16 µg/mL |
| N=C(N)NCCCNCc1ccc(-n2cc3cc(-c4cccc(CCN5CCNCC5)c4)[nH]c3nc2=O)cc1 [Compound 1199] | < 16 µg/mL |
| NCCc1c[nH]c2cc(-n3cc4cc(CCS(=O)(=O)C5CCNCC5)[nH]c4nc3=O)ccc12 [Compound 1278] | > 16 µg/mL |
| NCCCN1CC=C(c2cn3cc[nH]c3nc2=O)CC1 [Compound 571] | > 16 µg/mL |
| CNCCCOc1cccc(-c2cc3cn(-c4ccc(CNCCCNC(=N)N)cc4)c(=O)nc3[nH]2)c1 [Compound 1221] | < 16 µg/mL |
| NCC(Cn1cc2cc(-c3ccc(S(=O)(=O)NC4CCNCC4)cc3)[nH]c2nc1=O)OCc1ccc(F)cc1 (stereo not shown) [Compound 1085] | > 16 µg/mL |
| NCCCNCc1ccc(-n2cc3cc(C4C[C@@H](N)[C@@H](CO)O4)[nH]c3nc2=O)cc1 (stereo partly shown) [Compound 1246] | < 16 µg/mL |
| NCCCN1CC=C(c2cn3c(nc2=O)[nH]c2ccccc23)CC1 [Compound 587] | > 16 µg/mL |
| NCCCNCc1ccc(-n2cc3cc(-c4cc(F)c(F)cc4F)[nH]c3nc2=O)cc1 [Compound 310] | > 16 µg/mL |
| N=C(N)NCCCNCc1ccc(-n2cc3cc(CCS(=O)(=O)CCN)[nH]c3nc2=O)cc1 [Compound 1189] | < 16 µg/mL |
| NCCCN(CCCN)Cc1ccc(-n2cc3cc(-c4ccc(S(=O)(=O)N(CCN5CCOCC5)C5CCNCC5)cc4)[nH]c3nc2=O)cc1 [Compound 233] | < 16 µg/mL |
| NCCCN(CCCN)Cc1ccc(-n2cc3cc(-c4ccc(S(=O)(=O)NC5CCNCC5)cc4F)[nH]c3nc2=O)cc1 [Compound 200] | < 16 µg/mL |
| NC(=O)COc1cccc(-n2cc3cc(-c4ccc(S(=O)(=O)NC5CCNCC5)cc4)[nH]c3nc2=O)c1 [Compound 1253] | > 16 µg/mL |
| O=c1nc2[nH]c(-c3ccc(S(=O)(=O)NC4CCNCC4)cc3)cc2cn1-c1ccccc1OCC1CCNCC1 [Compound 1165] | > 16 µg/mL |
| NCCCNCc1ccc(-n2cc3cc(-c4ccccn4)[nH]c3nc2=O)cc1 [Compound 620] | > 16 µg/mL |
